Test results taken from US9981964B2 (Agency for Science, Technology and Research, priority 2013, dated 2018).

Tested on: HEK293-STF3A cells
Experiment: STF3A assay (STF luciferase reporter in Wnt3A-expressing HEK293 cells)
Format: cell-based
Conditions: Homo sapiens, 24 h, 1 day of treatment
Procedure, shortened: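 HEK293 cells carrying the STF reporter and expressing Wnt3A, seeded 2×10^4 per well overnight, then treated 1 day with compound at final 50 μM to 1.5 nM. Luciferase activity read by luminescence after Steady-Glo reagent, 10 min at room temperature.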

SMILES | IC50
CN1C(=O)c2c(n(CC(=O)Nc3ccc(-c4cccnc4)cn3)ccc2=O)C1=O [Compound 63, N-(3,3′-bipyridin-6-yl)-2-(6-methyl-4,5,7-trioxo-4,5,6,7-tetrahydro-1H-pyrrolo[3,4-b]pyridin-1-yl)acetamide] | < 1000 nM
CN1C(=O)C2=C(C1=O)N(CC(=O)Nc1ccc(-c3ccncc3)nn1)CCC2 [Compound 71, 2-(6-methyl-5,7-dioxo-2,3,4,5,6,7-hexahydro-1H-pyrrolo[3,4-b]pyridin-1-yl)-N-(6-(pyridin-4-yl)pyridazin-3-yl)acetamide] | < 1000 nM
CN1C(=O)C2=C(C1=O)N(CC(=O)Nc1ccc(-c3ncccn3)cc1)CCC2 [Compound 74, 2-(6-methyl-5,7-dioxo-2,3,4,5,6,7-hexahydro-1H-pyrrolo[3,4-b]pyridin-1-yl)-N-(4-(pyrimidin-2-yl)phenyl)acetamide] | < 1000 nM
COc1ccc(-c2ccc(NC(=O)CN3CCCC4=C3C(=O)N(C3CC3)C4=O)nc2)nc1 [Compound 130, 2-(6-cyclopropyl-5,7-dioxo-2,3,4,5,6,7-hexahydro-1H-pyrrolo[3,4-b]pyridin-1-yl)-N-(5-methoxy-[2,3′-bipyridin]-6′-yl)acetamide] | < 100 nM
O=C(CN1CCCC2=C1C(=O)N(C1CC1)C2=O)Nc1ccc(-c2cccc(OC(F)(F)F)c2)nn1 [Compound 56, 2-(6-cyclopropyl-5,7-dioxo-2,3,4,5,6,7-hexahydro-1H-pyrrolo[3,4-b]pyridin-1-yl)-N-(6-(3-(trifluoromethoxy)phenyl)pyridazin-3-yl)acetamide] | < 1000 nM
CN1C(=O)C2=C(C1=O)N(CC(=O)Nc1ccc(-c3cccc(C(F)(F)F)c3)nn1)CCC2 [Compound 50, 2-(6-methyl-5,7-dioxo-2,3,4,5,6,7-hexahydro-1H-pyrrolo[3,4-b]pyridin-1-yl)-N-(6-(3-(trifluoromethyl)phenyl)pyridazin-3-yl)acetamide] | < 100 nM
Cc1ccc(-c2ccc(NC(=O)CN3CCCC4=C3C(=O)N(C3CC3)C4=O)nn2)cn1 [Compound 86, 2-(6-cyclopropyl-5,7-dioxo-2,3,4,5,6,7-hexahydro-1H-pyrrolo[3,4-b]pyridin-1-yl)-N-(6-(6-methylpyridin-3-yl)pyridazin-3-yl)acetamide] | < 100 nM
CN1C(=O)C2=C(C1=O)N(CC(=O)Nc1ccc(-c3ccncc3)nc1)CCC2 [Compound 122, N-(2,4′-bipyridin-5-yl)-2-(6-methyl-5,7-dioxo-2,3,4,5,6,7-hexahydro-1H-pyrrolo[3,4-b]pyridin-1-yl)acetamide] | < 1000 nM
COc1cncc(-c2ccc(NC(=O)CN3CCCC4=C3C(=O)N(C3CC3)C4=O)nn2)c1 [Compound 153, 2-(6-cyclopropyl-5,7-dioxo-2,3,4,5,6,7-hexahydro-1H-pyrrolo[3,4-b]pyridin-1-yl)-N-(6-(5-methoxypyridin-3-yl)pyridazin-3-yl)acetamide] | < 100 nM
C[C@@H](C(=O)Nc1ccc(-c2cccnc2)cn1)N1CCCC2=C1C(=O)N(C)C2=O (single isomer, unassigned) [Compound 92] | < 100 nM
CC(C(=O)Nc1ccc(-c2cncc(F)c2)cn1)N1CCCC2=C1C(=O)N(C)C2=O (stereo not drawn) [Compound 139, N-(5′-fluoro-3,3′-bipyridin-6-yl)-2-(6-methyl-5,7-dioxo-2,3,4,5,6,7-hexahydro-1H-pyrrolo[3,4-b]pyridin-1-yl)propanamide] | < 100 nM
COc1ccc(-c2ccc(NC(=O)CN3CCCC4=C3C(=O)N(C)C4=O)nn2)cc1 [Compound 31, N-(6-(4-methoxyphenyl)pyridazin-3-yl)-2-(6-methyl-5,7-dioxo-2,3,4,5,6,7-hexahydro-1H-pyrrolo[3,4-b]pyridin-1-yl)acetamide] | < 100 nM
Cc1cccc(-c2ccc(NC(=O)CN3CCCC4=C3C(=O)N(C)C4=O)nn2)c1 [Compound 29, 2-(6-methyl-5,7-dioxo-2,3,4,5,6,7-hexahydro-1H-pyrrolo[3,4-b]pyridin-1-yl)-N-(6-(m-tolyl)pyridazin-3-yl)acetamide] | < 100 nM
O=C(CN1CCCC2=C1C(=O)N(C1CC1)C2=O)Nc1ccc(-c2ccc(OC(F)(F)F)cc2)nn1 [Compound 57, 2-(6-cyclopropyl-5,7-dioxo-2,3,4,5,6,7-hexahydro-1H-pyrrolo[3,4-b]pyridin-1-yl)-N-(6-(4-(trifluoromethoxy)phenyl)pyridazin-3-yl)acetamide] | < 1000 nM
Cc1cc(NC(=O)CN2CCCC3=C2C(=O)N(C2CC2)C3=O)ncc1-c1cccnc1 [Compound 120, 2-(6-cyclopropyl-5,7-dioxo-2,3,4,5,6,7-hexahydro-1H-pyrrolo[3,4-b]pyridin-1-yl)-N-(4-methyl-[3,3′-bipyridin]-6-yl)acetamide] | < 1000 nM
CN1C(=O)C2=C(C1=O)N(CC(=O)Nc1ccc(-c3ccc(C(F)(F)F)cc3)nn1)CCC2 [Compound 49, 2-(6-methyl-5,7-dioxo-2,3,4,5,6,7-hexahydro-1H-pyrrolo[3,4-b]pyridin-1-yl)-N-(6-(4-(trifluoromethyl)phenyl)pyridazin-3-yl)acetamide] | < 10000 nM
CN1C(=O)c2c(n(CC(=O)Nc3ccc(-c4cccnc4)nn3)ccc2=O)C1=O [Compound 64, 2-(6-methyl-4,5,7-trioxo-4,5,6,7-tetrahydro-1H-pyrrolo[3,4-b]pyridin-1-yl)-N-(6-(pyridin-3-yl)pyridazin-3-yl)acetamide] | < 1000 nM
O=C(CN1CCCC2=C1C(=O)N(C1CC1)C2=O)Nc1ccc(-c2ccc(F)nc2)cn1 [Compound 105, 2-(6-cyclopropyl-5,7-dioxo-2,3,4,5,6,7-hexahydro-1H-pyrrolo[3,4-b]pyridin-1-yl)-N-(6′-fluoro-[3,3′-bipyridin]-6-yl)acetamide] | < 100 nM
O=C(CN1CCCC2=C1C(=O)N(C1CC1)C2=O)Nc1ccc(-c2cccc(C(F)(F)F)c2)nn1 [Compound 55, 2-(6-cyclopropyl-5,7-dioxo-2,3,4,5,6,7-hexahydro-1H-pyrrolo[3,4-b]pyridin-1-yl)-N-(6-(3-(trifluoromethyl)phenyl)pyridazin-3-yl)acetamide] | < 100 nM
Cc1ncccc1-c1ccc(NC(=O)CN2CCCC3=C2C(=O)N(C)C3=O)nn1 [Compound 134, 2-(6-methyl-5,7-dioxo-2,3,4,5,6,7-hexahydro-1H-pyrrolo[3,4-b]pyridin-1-yl)-N-(6-(2-methylpyridin-3-yl)pyridazin-3-yl)acetamide] | < 5000 nM
CN1C(=O)C2=C(C1=O)N(CC(=O)Nc1ccc(-c3ccccc3F)nn1)CCC2 [Compound 84, N-(6-(2-fluorophenyl)pyridazin-3-yl)-2-(6-methyl-5,7-dioxo-2,3,4,5,6,7-hexahydro-1H-pyrrolo[3,4-b]pyridin-1-yl)acetamide] | < 100 nM
C[C@@H](C(=O)Nc1ccc(-c2cccnc2)nc1)N1CCCC2=C1C(=O)N(C)C2=O (single isomer, unassigned) [Compound 116] | < 100 nM
Cc1cnc(-c2ccc(NC(=O)CN3CCCC4=C3C(=O)N(C)C4=O)nc2)cn1 [Compound 132, 2-(6-methyl-5,7-dioxo-2,3,4,5,6,7-hexahydro-1H-pyrrolo[3,4-b]pyridin-1-yl)-N-(5-(5-methylpyrazin-2-yl)pyridin-2-yl)acetamide] | < 100 nM
Cc1ccccc1-c1ccc(NC(=O)CN2CCCC3=C2C(=O)N(C)C3=O)nn1 [Compound 27, 2-(6-methyl-5,7-dioxo-2,3,4,5,6,7-hexahydro-1H-pyrrolo[3,4-b]pyridin-1-yl)-N-(6-(o-tolyl)pyridazin-3-yl)acetamide] | < 1000 nM
